Biological target: T1, PfLPL1 (Plasmodium falciparum, UniProt Q8IK69)
T1 construct: gene PF3D7_1476700; full length 1-353, expressed from pETM-41 in E. coli BL21(DE3); Ni-NTA then amylose resin (implies His-MBP fusion)
T1 sequence (Q8IK69 1-353): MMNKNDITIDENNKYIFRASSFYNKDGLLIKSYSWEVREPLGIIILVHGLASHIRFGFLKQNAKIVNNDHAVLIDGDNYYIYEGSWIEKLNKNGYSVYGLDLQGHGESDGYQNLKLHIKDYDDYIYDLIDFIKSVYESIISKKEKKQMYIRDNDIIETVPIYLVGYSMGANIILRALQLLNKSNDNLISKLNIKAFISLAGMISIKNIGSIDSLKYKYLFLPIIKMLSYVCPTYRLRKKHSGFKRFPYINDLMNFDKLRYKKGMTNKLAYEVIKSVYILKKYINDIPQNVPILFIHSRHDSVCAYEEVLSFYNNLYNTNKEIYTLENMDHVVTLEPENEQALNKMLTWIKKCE
Assay: coupled Amplex Red fluorescence assay (GPC phosphodiesterase, choline oxidase, HRP)
Format: biochemical
Details: substrate 0-70 µM; Tris-HCl, CaCl2, pH 8.0; room temperature; acyl chain of LPC not stated; reaction mix lists 0.5 mM lecithin

LPC
Km: 61.2 ± 5.9 µM

Source: article PMC8359613, “An essential vesicular-trafficking phospholipase mediates neutral lipid synthesis and contributes to hemozoin formation in Plasmodium falciparum” (BMC Biology, 2021)
